Laboratory results published in PubChem BioAssay (NCI).
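A five-concentration, 48-hour dose response in 96-well plates underlies each endpoint, interpolated linearly between surrounding concentrations. TGI: total growth inhibition.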

Experiments:
Assay in all cases: NCI-60 cell line screen, 48 h
[1] = system: IGROV1 ovarian
[2] = system: COLO 205 colon
[3] = system: MOLT-4 leukemia
[4] = system: EKVX NSCLC
[5] = system: SK-MEL-2 melanoma
[6] = system: MDA-MB-231 breast
[7] = system: T-47D breast
[8] = system: SN12C renal
[9] = system: TK-10 renal
[10] = system: UACC-62 melanoma
[11] = system: MDA-N
[12] = system: BT-549 breast
[13] = system: A549 NSCLC
[14] = system: RXF 393 renal
[15] = system: SF-268 CNS
[16] = system: CCRF-CEM leukemia
[17] = system: SNB-19 CNS
[18] = system: SK-MEL-5 melanoma
[19] = system: MDA-MB-435
[20] = system: SR leukemia
[21] = system: MCF7 breast
[22] = system: DU-145 prostate
[23] = system: U251 CNS
[24] = system: HCT-15 colon
[25] = system: HCT-116 colon
[26] = system: NCI-H23 lung
[27] = system: SF-539 CNS
[28] = system: CAKI-1 renal
[29] = system: HS 578T breast
[30] = system: OVCAR-5 ovarian
[31] = system: 786-0 renal
[32] = system: UACC-257 melanoma
[33] = system: SW-620 colon
[34] = system: UO-31 renal
[35] = system: LOX IMVI melanoma
[36] = system: SF-295 CNS
[37] = system: HCC-2998 colon
[38] = system: K-562 leukemia
[39] = system: A498 renal
[40] = system: HT29 colon
[41] = system: SK-OV-3 ovarian
[42] = system: SNB-75 CNS
[43] = system: NCI/ADR-RES ovarian
[44] = system: MALME-3M melanoma
[45] = system: NCI-H460 lung
[46] = system: NCI-H226 lung
[47] = system: HOP-92 NSCLC
[48] = system: HOP-62 NSCLC
[49] = system: NCI-H522 lung
[50] = system: PC-3 prostate
[51] = system: RPMI-8226 leukemia
[52] = system: ACHN renal
[53] = system: OVCAR-4 ovarian
[54] = system: OVCAR-8 ovarian
[55] = system: KM12 colon
[56] = system: SK-MEL-28 melanoma
[57] = system: HL-60(TB) leukemia
[58] = system: OVCAR-3 ovarian
[59] = system: M14 melanoma

Nc1nc(=O)n(C2OC(CO)C(O)C2O)c2ncc(-c3ccc(-c4ccccc4)cc3)nc12 (stereo not given)
TGI [1]: > 100 µM | TGI [2]: > 100 µM | TGI [3]: > 100 µM | TGI [4]: > 100 µM | TGI [5]: > 100 µM | TGI [6]: 57.7 µM | TGI [7]: > 100 µM | TGI [8]: > 100 µM | TGI [9]: > 100 µM | TGI [10]: > 100 µM | TGI [11]: > 100 µM | TGI [12]: > 100 µM | TGI [13]: > 100 µM | TGI [14]: > 100 µM | TGI [15]: > 100 µM | TGI [16]: > 100 µM | TGI [17]: > 100 µM | TGI [18]: > 100 µM | TGI [19]: > 100 µM | TGI [20]: > 100 µM | TGI [21]: > 100 µM | TGI [22]: > 100 µM | TGI [23]: 88.9 µM | TGI [24]: > 100 µM | TGI [25]: > 100 µM | TGI [26]: > 100 µM | TGI [27]: > 100 µM | TGI [28]: > 100 µM | TGI [29]: > 100 µM | TGI [30]: > 100 µM | TGI [31]: > 100 µM | TGI [32]: > 100 µM | TGI [33]: > 100 µM | TGI [34]: > 100 µM | TGI [35]: > 100 µM | TGI [36]: > 100 µM | TGI [37]: > 100 µM | TGI [38]: > 100 µM | TGI [39]: > 100 µM | TGI [40]: > 100 µM | TGI [41]: > 100 µM | TGI [42]: > 100 µM | TGI [43]: > 100 µM | TGI [44]: > 100 µM | TGI [45]: > 100 µM | TGI [46]: 76.3 µM | TGI [47]: > 100 µM | TGI [48]: > 100 µM | TGI [49]: > 100 µM | TGI [50]: > 100 µM | TGI [51]: > 100 µM | TGI [52]: > 100 µM | TGI [53]: > 100 µM | TGI [54]: > 100 µM | TGI [55]: > 100 µM

O=C(C(Cl)=C(N1CCCCC1)N1CCCCC1)C(Cl)Cl
TGI [56]: > 100 µM | TGI [1]: > 100 µM | TGI [2]: > 100 µM | TGI [3]: > 100 µM | TGI [4]: > 100 µM | TGI [6]: > 100 µM | TGI [7]: > 100 µM | TGI [8]: > 100 µM | TGI [9]: > 100 µM | TGI [57]: > 100 µM | TGI [10]: > 100 µM | TGI [11]: > 100 µM | TGI [12]: > 100 µM | TGI [13]: > 100 µM | TGI [14]: > 100 µM | TGI [15]: > 100 µM | TGI [58]: > 100 µM | TGI [16]: > 100 µM | TGI [17]: > 100 µM | TGI [18]: > 100 µM | TGI [19]: > 100 µM | TGI [20]: > 100 µM | TGI [21]: > 100 µM | TGI [22]: > 100 µM | TGI [24]: > 100 µM | TGI [25]: > 100 µM | TGI [26]: > 100 µM | TGI [27]: > 100 µM | TGI [28]: > 100 µM | TGI [29]: > 100 µM | TGI [31]: > 100 µM | TGI [32]: > 100 µM | TGI [33]: > 100 µM | TGI [34]: > 100 µM | TGI [35]: > 100 µM | TGI [36]: > 100 µM | TGI [37]: > 100 µM | TGI [38]: > 100 µM | TGI [39]: > 100 µM | TGI [40]: > 100 µM | TGI [41]: > 100 µM | TGI [43]: > 100 µM | TGI [59]: > 100 µM | TGI [44]: > 100 µM | TGI [45]: > 100 µM | TGI [46]: > 100 µM | TGI [47]: > 100 µM | TGI [48]: > 100 µM | TGI [49]: > 100 µM | TGI [50]: > 100 µM | TGI [51]: > 100 µM | TGI [52]: > 100 µM | TGI [53]: > 100 µM | TGI [54]: > 100 µM | TGI [55]: > 100 µM
